Experiments:
peritoneal macrophages = test: ELISA for TNF-α and IL-6 on peritoneal macrophages from WT and TLR7−/− mice; format: cell-based, mouse; settings: Dotap formulations of miRNA
Description: (§1) Experiments were performed to determine whether the miRNA-TLR interaction is functional, and assessed whether the miRNAs of interest induce the secretion of cytokines such as TNF-α and IL-6, whose production is increased by TLR activation. We isolated peritoneal macrophages from WT and TLR7^−/− B6 mice. Cells were treated with Dotap alone or with Dotap formulations of miR-16, -21, -29a, and -147, and an ELISA for TNF-α and IL-6 was performed. In the functional assays, included also were miR-147 and -574-5p, because they have a mature viral-derived sequence that induces cytokine production through the activation of TLR8 and TLR7, similar to that of RNA33 (FIG. 14A). […] We also treated spleen cells from WT and TLR7^−/− mice with the same miRNAs and assessed expression of CD69, an early activation marker of cells which has a role in inflammation and proliferation and which also is activated by TLR3. Polyinosinic:polycytidylic acid [poly (I:C)], a known agonist of TLR3, served as positive control.
For all experiments, cells were treated with 15 μg of HPLC-purified synthetic miRNAs (Integrated DNA Technologies) complexed with Dotap Liposomal Transfection Reagent (Roche) as previously described.
Macrophages derived from the peritoneal cavity were isolated from WT and TLR7^−/− age- and sex-matched mice.
PBMC were isolated from heparinized blood of healthy donors by Ficoll-Paque (Pharmacia) centrifugation (500×g) following the manufacturer's instructions and were plated immediately for stimulation. Human PBMCs or murine peritoneal macrophages (300,000 cells) were stimulated with synthetic miRNAs for 24 h; then ELISAs for TNF-α and IL-6 were performed on the conditioned media using Multi-Analyte ELISArray Kits (SABiosciences) following the manufacturer's instructions.

spleen cells = test: Flow-cytometric analysis of CD69 in spleen cells of WT and TLR7−/− mice; format: cell-based, mouse; settings: cytofluorimetry
Description: as §1
Total splenocytes derived from WT and TLR7^−/− age- and sex-matched mice were prepared by harvesting the spleen and preparing a single-cell suspension. Red blood cells were eliminated by osmotic lysis using red blood cell lysis buffer (eBioscience). […] Cells were stained with phycoerythrin-conjugated anti-CD69 (BioLegend) antibody and analyzed using FACSCalibur flow cytometer (Becton Dickinson).

[1] = system: human peripheral blood mononuclear cells (PBMCs); test: ELISA for TNF-α and IL-6 on human PBMCs; format: cell-based; settings: human PBMCs from two healthy donors, Dotap formulations
Description: To investigate whether miRNA-induced activation of TLRs also occurs in human cells, an NF-κB reporter assay was performed in HEK-293 cells. NF-κB, a transcription factor modulating the expression of several cytokine genes, is activated by several TLRs, including the only ssRNA-binding human TLRs, TLR7 and TLR8. Therefore, we treated HEK-293 cells expressing human TLR7 or TLR8 (hereafter, TLR7- and TLR8-HEK-293 cells, respectively) with Dotap alone or with Dotap formulations of miR-16, -21, -29a, or -147 and performed an NF-κB reporter assay. As positive controls Gardiquimod and ssRNA40 were used, specific agonists of TLR7 and TLR8, respectively. […] To confirm this conclusion, transfected were TLR8-HEK-293 cells with a plasmid encoding a dominant negative form of TLR8 (TLR8DN) and treated these cells with the miRNAs of interest. In TLR8DN cells, the activation of NF-κB by miR-21 and miR-29a was abolished (FIG. 3F). Also, incubated were TLR7- and TLR8-expressing human peripheral blood mononuclear cells (PBMCs) from two healthy donors with Dotap alone or Dotap formulations of miR-16, -21, -27b, -29a, -147, -574-5p, or ssRNA40 and an ELISA was performed for TNF-α and IL-6. With the exception of PBMCs treated with Dotap alone and with Dotap-miR-16, each of the other miRNAs and ssRNA40 induced the production of TNF-α and IL-6 (FIGS. 3G-3J). […]

[2] = peritoneal macrophages of TLR7−/− B6 mice
[3] = peritoneal macrophages of WT B6 mice

## miR-147: synthetic mature miRNA (SEQ ID NO: 3), sequence similar to RNA33, Dotap formulation (GUGUGUGGAAAUGCUUCUGC; DOTAP formulation, further chemistry not given here)
Peritoneal macrophages; [2]
  IL-6 production: not
  TNF-α production: not
Peritoneal macrophages; [3]
  IL-6 production: increased
  TNF-α production: increased
Spleen cells; spleen cells from TLR7−/− mice
  CD69 activation: not
Spleen cells; spleen cells from WT mice
  CD69 activation: induced
[1]
  production of IL-6: induced
  production of TNF-α: induced

Source: patent US9481885B2, “Methods and compositions related to miR-21 and miR-29a, exosome inhibition, and cancer metastasis” (Ohio State Innovation Foundation, priority 2011, dated 2016)
